{"source": "patent US20070179143A1", "about": "(priority 2003, published 2007)", "key": {"SK-OV-3": {"system": "SK-OV-3", "test": "Cytotoxicity test to cancer cell lines (SRB method), SK-OV-3", "format": "cell-based", "settings": "Homo sapiens, SK-OV-3, 48 h, read-out: Cytotoxicity ED50 SK-OV-3"}, "SK-MEL-2": {"system": "SK-MEL-2", "test": "Cytotoxicity test to cancer cell lines (SRB method), SK-MEL-2", "format": "cell-based", "settings": "Homo sapiens, SK-MEL-2, 48 h, read-out: Cytotoxicity ED50 SK-MEL-2"}, "[1]": {"test": "Body weight change of NCI-H460 xenografted nude mice", "format": "in vivo, BALB/c nude mouse"}, "HUVEC cells": {"system": "HUVEC cells", "test": "Capillary-like tube formation assay", "format": "cell-based", "settings": "HUVEC on matrigel, 24 hours", "protocol": "Matrigel used in this experiment was a product of BioCoat. Matrigel was thawed in a refrigerator for 24 hours before use. Thawing matrigel, 96 well plate and yellow tip were put on ice. Then, matrigel was distributed into each well of the plate by 40 μl. The polymerization of the plate was performed in a 37° C. incubator for 30 minutes. Each well of the plate was inoculated with 180 μl of HUVEC cell solution (2×10^4 cells/m;) along with 20 μl of the compound of the Example 12 in serum-free media (0.3, 1,3, 10 and 30 μg/ml), followed by further culture for 24 hours.\nTube formation was observed under a microscope to investigate inhibition activity of angiogenesis.\nFumagilin and doxorubicin were used as a positive control."}, "in vivo": {"test": "in vivo", "settings": "both, ICR, mouse, in vivo", "protocol": "(§1) 5-week-old ICR mice having the weight of 25-35 g (SPF, SLC Co. Japan) were used as test animals. A pair of female and male of the mice was given for the test of each compound. Group T2, T3, T4 and T5 were arranged (10 animals per group) for the test of acute toxicity of the compound prepared in the Example 12. […] Control group (T1) was administered with only a solvent without the compound of the Example 12.\n(§2) For comparison, colchicine was injected in the test animals by the same method as described in the above. The group treated with colchicine was composed of 6 mice.\n(§3) Taxol produced by Bristol Myers Sqibb Co. was also used for comparison, and the injection and the test of acute toxicity were performed by the same method as described in the above."}, "ICR mice": {"system": "ICR mice", "test": "in vivo", "settings": "for Death Total: ICR mice, 7 days, deaths/animals", "protocol": "as §1, §2, §3"}, "A549": {"system": "A549", "test": "Cytotoxicity test to cancer cell lines (SRB method), A549", "settings": "Homo sapiens, A549, 48 h, read-out: Cytotoxicity ED50 A549", "quoted_text": "(§4) Cytotoxicity to A549 (Korea Research Institute of Chemical Technology), SK-OV-3 (Korea Research Institute of Chemical Technology), SK-MEL-2 (Korea Research Institute of Chemical Technology), HCT-15 (Korea Research Institute of Chemical Technology) and MCF7 (Korean Cell Line Bank, Seoul National University School of medicine) cells was measured by Sulforhodamin-B (SRB) method (1989, National Cancer Institute (NCI)) which was developed for the measurement of in vitro anticancer activity of a drug. Cells were separated using 0.25% trypsin-EDTA solution, leading to the preparation of a cell suspension by 5×10^318 2×10^4 cells/well. Then, the suspension was distributed into a 96 well plate by 100 μl/well, which was cultured in a 37° C., 5% CO2 incubator for 24 hours. Compounds prepared in examples of the present invention were used as a sample. Precisely, the compound was dissolved in dimethylsulfoxide and diluted with RPMI 1640 medium before being used as a sample. The final concentration of the sample used varied ranging 1 μM˜0.00001 μM. The medium was removed from the 96 well plate and then diluted sample solution was added by 100 μl/well, followed by further culture in a 37° C., 5% CO2 incubator for 48 hours. Tz (time zero) plate was collected from the point of adding the sample. Upon completing the culture, the medium was removed from each well along with Tz plate, then 10% trichloroacetic acid (TCA) was added by 100 μl/well. The plate was left at 4° C. for 1 hour to let cells be fixed on the floor of the plate. After cells were fixed completely, the plate was washed with water 5-6 times to remove the remaining trichloroacetic acid solution completely and moisture was completely dried at room temperature. 0.4% Sulforhodamine-B was dissolved in 1% acetic acid solution to prepare a staining solution. Cells were stained for 30 minutes with a dye added by 100 μl to each well of the completely dried plate. Then, the plate was washed with 1% acetic acid solution 5-6 times to remove sulforhodamine-B remained uncombined with cells. Then, the plate was dried at room temperature. 10 mM Tris solution was added by 100 μ/well thereto to dissolve the dye, and optical density (OD) was measured at 520 nm with a micro plate reader.\n(§5) ED50 (concentration that inhibits cancer cell growth 50%, 5.0% effective dose, nM/ml) of the sample to cancer cell was calculated as follows. OD value at the point of beginning the culture with the sample was determined as Tz (time zero) value. OD value of a well to be cultured without the sample was determined as a control value (C). OD value of a well pretreated with the sample was determined as experimental value (T). After calculating Tz, C and T, cytotoxicity of the sample was measured by the below <Mathematical Formula 1>. T≦Tz, (T−Tz)/(C−Tz)×100 T>Tz, (T−Tz)/Tz×10,0 <Mathematical Formula 1>\n(§6) ED50, the concentration that can inhibit cancer cell growth by 50%, was calculated by using a regression analysis of lotus program based on the degree of cytotoxicity obtained by the <Mathematical Formula 1>."}, "MCF7": {"system": "MCF7", "test": "Cytotoxicity test to cancer cell lines (SRB method), MCF7", "settings": "read-out: Cytotoxicity ED50 MCF-7, MCF-7, 48 hours"}, "HCT-15": {"system": "HCT-15", "test": "Cytotoxicity test to cancer cell lines (SRB method), HCT-15", "settings": "Homo sapiens, HCT-15, 48 h, read-out: Cytotoxicity ED50 HCT15", "quoted_text": "as §4, §5, §6"}, "[2]": {"system": "human lung cancer cell line NCI-H460", "test": "Inhibiting effect on tumor growth, NCI-H460 xenografted nude mice", "quoted_text": "Samples for the experiment were stored in a refrigerator all the time. […] The prepared sample is subject to be precipitated, so that tip sonication was performed right before the administration to disperse it well.\n7 week-old female S.P.F. BALB/c nude mice, provided by Charles River Co., Japan, were used as test animals. The test animals were adapted in a Hepa-filter room over a week before the test. The temperature was 21±2° C., humidity was 55±5% and 12-hour light and dark cycle was automatically repeated in that lab. Solid feed (Cheiluedang) was sterilized by radioactive rays and drinking water was also sterilized by autoclave. Feed and water were taken by the animal freely. Cancer cell line used in this experiment was NCI-H460 (human lung tumor cell line) provided by Korea Research Institute of Bioscience and Biotechnology.\nThe tumor cell line, stored in liquid nitrogen, was thawed and cultured in a 37° C., 5% CO2 incubator for a required time. Upon completing the culture, all the cells were recovered and cell concentration of the culture fluid was adjusted using PBS to 3×10^7 cells/ml. The adjusted cell culture solution was injected hypodermically into armpit between right shoulder girdle and chest wall by 0.3 ml per mouse. From the next day of grafting, NCI-H460 xenografted nude mice were administered intraperitoneal everyday with the sample solution by 0.2 ml/20 g of weight, once a day.\nAfter the grafting of tumor cells, the volume of a tumor in each individual was measured in three dimensions by using a vernier caliper, which was represented in the below <Mathematical Formula 2>. Tumor volume=(length×width×height)/2 <Mathematical Formula 2>\nBody weight changes of animal were measured three times a week. Each xenografted nude mouse was sacrificed to separate a tumor, which was then weighed."}, "[3]": {"settings": "1 mg/kg intraperitoneal once a day"}, "[4]": {"settings": "3 mg/kg intraperitoneal once a day"}, "[5]": {"settings": "10 mg/kg intraperitoneal once a day"}}, "data": [{"molecule": "COc1cc2c(c(OC)c1OC)-c1ccc(SC)c(=O)cc1[C@@H](NC(=O)c1cc(F)cc(CO[N+](=O)[O-])c1)CC2", "note": "[Example 12, 3-fluoro-5-nitrooxymethyl-N-[(7S)-1,2,3-trimethoxy-10-methylsulfanyl-9-oxo-5,6,7,9-tetrahydro-benzo[a]heptalen-7-yl]-benzamide]", "values": [{"measurement": "EC50", "setting": "SK-OV-3", "result": 0.27, "unit": "nM"}, {"measurement": "EC50", "setting": "SK-MEL-2", "result": 0.11, "unit": "nM"}, {"measurement": "Body weight Change Day 1", "setting": "[1]; [3]", "result": "100.0 ± 0.0", "unit": "%"}, {"measurement": "Body weight Change Day 3", "setting": "[1]; [3]", "result": "105.0 ± 1.4", "unit": "%"}, {"measurement": "Body weight Change Day 7", "setting": "[1]; [3]", "result": "104.2 ± 5.3", "unit": "%"}, {"measurement": "Body weight Change Day 9", "setting": "[1]; [3]", "result": "99.6 ± 4.4", "unit": "%"}, {"measurement": "Body weight Change Day 11", "setting": "[1]; [3]", "result": "97.5 ± 3.6", "unit": "%"}, {"measurement": "Body weight Change Day 14", "setting": "[1]; [3]", "result": "98.3 ± 3.2", "unit": "%"}, {"measurement": "Body weight Change Day 1", "setting": "[1]; [4]", "result": "100.0 ± 0.0", "unit": "%"}, {"measurement": "Body weight Change Day 3", "setting": "[1]; [4]", "result": "102.8 ± 2.0", "unit": "%"}, {"measurement": "Body weight Change Day 7", "setting": "[1]; [4]", "result": "101.8 ± 4.2", "unit": "%"}, {"measurement": "Body weight Change Day 9", "setting": "[1]; [4]", "result": "99.3 ± 3.3", "unit": "%"}, {"measurement": "Body weight Change Day 11", "setting": "[1]; [4]", "result": "99.1 ± 2.8", "unit": "%"}, {"measurement": "Body weight Change Day 14", "setting": "[1]; [4]", "result": "94.5 ± 3.9", "unit": "%"}, {"measurement": "Body weight Change Day 1", "setting": "[1]; [5]", "result": "100.0 ± 0.0", "unit": "%"}, {"measurement": "Body weight Change Day 3", "setting": "[1]; [5]", "result": "103.9 ± 0.9", "unit": "%"}, {"measurement": "Body weight Change Day 7", "setting": "[1]; [5]", "result": "92.2 ± 3.5", "unit": "%"}, {"measurement": "Body weight Change Day 9", "setting": "[1]; [5]", "result": "89.4 ± 2.0", "unit": "%"}, {"measurement": "Body weight Change Day 11", "setting": "[1]; [5]", "result": "92.3 ± 2.9", "unit": "%"}, {"measurement": "Body weight Change Day 14", "setting": "[1]; [5]", "result": "93.4 ± 0", "unit": "%"}, {"measurement": "decrease of the weight of the mouse", "setting": "[1]; comparing to solvent only or positive control", "result": "about 10%"}, {"measurement": "dosage that totally inhibited angiogenesis", "setting": "HUVEC cells", "result": "over 10 μg/ml"}, {"measurement": "dosage with angiogenesis inhibition activity", "setting": "HUVEC cells; as good effect as fumagilin at 10 μg/ml", "result": "over 0.3 μg/ml"}, {"measurement": "LD50", "setting": "in vivo", "result": 60, "unit": "mg/kg"}, {"measurement": "Death Total", "setting": "ICR mice; 30 mg/kg into the abdominal cavity", "result": "0/10"}, {"measurement": "Death Total", "setting": "ICR mice; 40 mg/kg into the abdominal cavity", "result": "0/10"}, {"measurement": "Death Total", "setting": "ICR mice; 50 mg/kg into the abdominal cavity", "result": "0/10"}, {"measurement": "Death Total", "setting": "ICR mice; 60 mg/kg into the abdominal cavity", "result": "0/10"}, {"measurement": "times as weak toxicity as that of colchicine", "setting": "ICR mice; ratio of LD50", "result": 30, "unit": "times"}, {"measurement": "EC50", "setting": "A549", "result": 0.05, "unit": "nM"}, {"measurement": "EC50", "setting": "MCF7", "result": 0.03, "unit": "nM"}, {"measurement": "EC50", "setting": "HCT-15", "result": 0.05, "unit": "nM"}, {"measurement": "Tumor volume Day 0", "setting": "[2]; [3]", "result": "0.0 ± 0.0"}, {"measurement": "Tumor volume Day 4", "setting": "[2]; [3]", "result": "20.7 ± 3.1"}, {"measurement": "Tumor volume Day 7", "setting": "[2]; [3]", "result": "49.2 ± 12.2"}, {"measurement": "Tumor volume Day 9", "setting": "[2]; [3]", "result": "78.1 ± 13.0"}, {"measurement": "Tumor volume Day 11", "setting": "[2]; [3]", "result": "146.5 ± 8.8"}, {"measurement": "Tumor Weight Day 14", "setting": "[2]; [3]", "result": "950.9 ± 174.8", "unit": "mg"}, {"measurement": "Tumor volume Day 14", "setting": "[2]; [3]", "result": "299.3 ± 41.5"}, {"measurement": "Tumor volume Day 0", "setting": "[2]; [4]", "result": "0.0 ± 0.0"}, {"measurement": "Tumor volume Day 4", "setting": "[2]; [4]", "result": "16.9 ± 5.1"}, {"measurement": "Tumor volume Day 7", "setting": "[2]; [4]", "result": "31.2 ± 11.7"}, {"measurement": "Tumor volume Day 9", "setting": "[2]; [4]", "result": "49.7 ± 15.8"}, {"measurement": "Tumor volume Day 11", "setting": "[2]; [4]", "result": "96.1 ± 26.1"}, {"measurement": "Tumor Weight Day 14", "setting": "[2]; [4]", "result": "714.5 ± 103.8", "unit": "mg"}, {"measurement": "Tumor volume Day 14", "setting": "[2]; [4]", "result": "206.8 ± 48.0"}, {"measurement": "Tumor volume Day 0", "setting": "[2]; [5]", "result": "0.0 ± 0.0"}, {"measurement": "Tumor volume Day 4", "setting": "[2]; [5]", "result": "16.1 ± 6.7"}, {"measurement": "Tumor volume Day 7", "setting": "[2]; [5]", "result": "24.6 ± 9.8"}, {"measurement": "Tumor volume Day 9", "setting": "[2]; [5]", "result": "35.2 ± 12.9"}, {"measurement": "Tumor volume Day 11", "setting": "[2]; [5]", "result": "69.4 ± 26.9"}, {"measurement": "Tumor Weight Day 14", "setting": "[2]; [5]", "result": "390.9 ± 0", "unit": "mg"}, {"measurement": "Tumor volume Day 14", "setting": "[2]; [5]", "result": "103.0 ± 0"}, {"measurement": "size and weight of a tumor (in words)", "setting": "[2]; comparing to solvent only (V.C-1, V.C-2) or positive control (taxol, adriamycin)", "result": "remarkably decreased"}]}]}
